One compound from paper PMC11053489 (Viruses, 2024) can be followed below.

The conditions of data set [1]: 20 mg/kg, once (dog or cat); Cmax × Fun.
The next data set in a line: in vitro. To be noted: African green monkey.
Data set [2] relates to SARS-CoV-2 (hCoV-19/USA-WA1/2020) in Vero CCL-81 cells. Description: microbe, parasite or virus in culture. It is filed as cell-based. Particulars: Severe acute respiratory syndrome coronavirus 2, 48 h.

One may read the EC50 as the concentration that produces a half-maximal response. One may read the EC90 as the concentration needed for an effect of 90%. On to `Cc1cc(C2=NO[C@@](c3cc(Cl)c(Cl)c(Cl)c3)(C(F)(F)F)C2)sc1C(=O)NCC(=O)NCC(F)(F)F` [Lotilaner], for which the “Cmax (μM) {unbound}” value in data set [1] worked out at 0.007 µM. Also, the CC50 in “in vitro” amounted to 44.3 µM. Besides, the 50% effective concentration (EC50) in data set [2] (read-out: Vero CCL-81 Cells EC50) is 1.9 µM. The EC90 in data set [2] (read-out: Vero CCL-81 Cells EC90) was determined as 4.9 µM.
